Test results from patent US12194027B2, “Small molecule inhibitors of GPCR GPR68 and related receptors for treating cancer, glioblastoma, and other indications” (UNIVERSITY OF MARYLAND, BALTIMORE, priority 2019, dated 2025).

test system: WM115 melanoma cell line; assay: scratch assay for migration, WM115; assay type: cell-based, human; settings: OGM 5 μM, EIPA 10 μM, 20 hours
Protocol: (§1) Cells were grown to confluence and the cells were denuded with a P200 tip. A medium change was done to add fresh medium, remove loose cells and add compounds OGM (5 μM) and EIPA (10 μM). The area of the scratch was observed 20 hours later.
(§2) Since there are numerous parallels are found between neural crest cells and cancer during migration, we examined whether OGM could inhibit the migration of cells in human melanoma cell lines (Oppitz et al., 2007; Schriek et al., 2005; Sinnberg et al., 2018). […] A2058, MeWo and WM115 cells were grown to confluence and a stripe of cells were denuded with a p200 pipette tip “scratch” and rinsed with PBS. Cells were treated with OGM or EIPA, or DMSO and incubated in low serum media. Imaging was done at 30 minutes after “scratch” and then 20 hours afterwards. Areas were then measured and normalized to the initial area.
(§3) Previous studies with the MV3 melanoma cell line have shown that disruption of proton efflux with EIPA inhibition of NHE1 can also reduce melanoma motility (Ludwig et al., 2013; Schneider et al., 2009; Stock et al., 2007, 2005; Stüwe et al., 2007). […] Although the expression of GPR68 and other proton-sensing receptors have been characterized in various skin cancers (Merkel cell carcinoma, dermatofibrosarcoma protuberans, atypical fibroxanthoma, and pleomorphic dermal sarcoma), expression in melanoma cell lines has not investigated (Nassios et al., 2019).

Row | Structure (SMILES) | migration in scratch assay
1 | CCN(c1nc(N)c(C(=O)NC(=N)N)nc1Cl)C(C)C [EIPA, reference compound] | inhibited migration

target: GPR68 (Homo sapiens (Human), UniProt Q15743); assay: GPR68 inhibitory activity of OGM analogs (Table 5); assay type: cell-based; settings: not given
Protocol: GPCR profiling assays were performed by Millipore (St. Louis, MO) using in cells expressing Gα15, a promiscuous G protein that enhances GPCR coupling to downstream Ca2+ signaling pathways.
Since GPCRs represent >30% of targets for FDA-approved small molecules and are known to modulate cell migration, activity against 158 GPCRs was assessed based on their chemical structures. GPCRs (158) were tested for agonist and antagonist activity at 10 μM. […] Chemical segregation analysis of zebrafish phenotype was conducted to further identify the inhibitory activity responsible for the zebrafish phenotype. […] The identities of the R groups in FIG. 2B are shown below in Table 5.
Chem1-GPR68 reporter cells were treated with 20 uM OM8345 for 2 hours and then rinsed with HBSS. […] The GPR68 inhibitory activity of OGM analogs segregated with the ability of the molecule to induce the phenotype in zebrafish. Neural crest progenitors labeled with In situ hybridization of FoxD3 show normal formation of the progenitor pool.

GPR68, sequence (Q15743 whole entry, looked up): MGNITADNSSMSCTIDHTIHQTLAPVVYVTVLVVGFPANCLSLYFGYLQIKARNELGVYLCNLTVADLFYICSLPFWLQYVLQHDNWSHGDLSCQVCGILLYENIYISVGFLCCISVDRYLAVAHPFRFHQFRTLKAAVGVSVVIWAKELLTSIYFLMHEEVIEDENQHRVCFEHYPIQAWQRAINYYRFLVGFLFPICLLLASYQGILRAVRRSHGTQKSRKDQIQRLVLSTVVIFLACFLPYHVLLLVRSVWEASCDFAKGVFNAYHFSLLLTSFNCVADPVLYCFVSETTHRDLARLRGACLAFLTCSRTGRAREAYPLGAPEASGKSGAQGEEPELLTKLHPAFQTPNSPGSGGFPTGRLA

Row | Structure (SMILES) | IC50 [nM]
2 | CCc1ccc2c(c1)C1(NN=C(c3cccc4ccccc34)S1)C(=O)N2 (centres unmarked) [OGM1] | 160
3 | Cc1ccc2c(c1)C1(NN=C(c3ccccc3)S1)C(=O)N2 (centres unmarked) [OGM3] | 760
4 | CCc1ccc2c(c1)C1(NN=C(c3ccccc3O)S1)C(=O)N2 (centres unmarked) [OGM4] | 3400
5 | CN1C(=O)C2(NN=C(c3ccccc3)S2)c2ccccc21 (centres unmarked) [OGM5] | 810
6 | CN1C(=O)C2(NN=C(c3cccc4ccccc34)S2)c2ccccc21 (centres unmarked) [OGM6] | 1500

test system: U87glioblastoma cells; assay: 3D tumoroid growth over time with GPR68 modulators; assay type: cell-based; settings: 10 μM/20 μM, imaged every 12 hours
Protocol: A GPR68-positive allosteric modulator, Ogerin, was tested. U87glioblastoma cells were plated in low attachment round bottom 96-well plates and allowed to form tumor spheroids for 3 days (T0). These spheroids were treated with Vehicle (DMSO), 10 μM/20 μM Ogerin or 10 μM/20 μM Ogremorphin (OGM2). The spheroids were placed in the Lionheart™ HCS equipped with environmental control (5% CO2 at 37° C.) and imaged every 12 hours.

Row | Structure (SMILES) | growth in 3D tumoroid culture
7 | Nc1nc(NCc2ccccc2)nc(-c2ccccc2CO)n1 [Ogerin] | Stimulates Growth

target: Lpa1 (Homo sapiens (Human), UniProt Q92633); assay: Lpa1 activity of OGM analogs (Table 5); assay type: cell-based; settings: not given
Sequence (Q92633 whole entry, species assumed): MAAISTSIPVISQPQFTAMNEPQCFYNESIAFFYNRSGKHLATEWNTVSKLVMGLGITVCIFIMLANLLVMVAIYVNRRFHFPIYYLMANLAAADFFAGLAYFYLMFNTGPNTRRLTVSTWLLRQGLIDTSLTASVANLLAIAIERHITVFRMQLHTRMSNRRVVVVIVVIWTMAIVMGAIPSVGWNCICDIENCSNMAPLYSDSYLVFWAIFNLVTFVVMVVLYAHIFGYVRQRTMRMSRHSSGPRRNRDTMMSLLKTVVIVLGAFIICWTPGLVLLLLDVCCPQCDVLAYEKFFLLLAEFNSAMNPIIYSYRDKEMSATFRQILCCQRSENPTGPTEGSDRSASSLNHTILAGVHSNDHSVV

Row | Structure (SMILES) | IC50 [nM]
8 | Cc1noc(-c2ccc(CSCCC(=O)O)cc2)c1NC(=O)OC(C)c1ccccc1Cl (centres unmarked) [LPAi, reference compound] | 250
9 | Cc1ccc2c(c1)C1(NN=C(c3ccccc3)S1)C(=O)N2 (centres unmarked) [OGM3] | 6400
10 | CCc1ccc2c(c1)C1(NN=C(c3ccccc3O)S1)C(=O)N2 (centres unmarked) [OGM4] | 1400

test system: A2058 melanoma cell line; assay: scratch assay for migration, A2058; assay type: cell-based, human; settings: OGM 5 μM, EIPA 10 μM, 20 hours
Protocol: as §1, §2, §3

Row | Structure (SMILES) | migration in scratch assay
11 | CCN(c1nc(N)c(C(=O)NC(=N)N)nc1Cl)C(C)C [EIPA, reference compound] | inhibited migration

test system: zebrafish embryo; assay: zebrafish embryo phenotype (pigmentation, morphology); assay type: in vivo; settings: concentrations up to 200× the IC50

Row | Structure (SMILES) | zebrafish phenotype
12 | Cc1noc(-c2ccc(CSCCC(=O)O)cc2)c1NC(=O)OC(C)c1ccccc1Cl (centres unmarked) [LPAi, reference compound] | failed to induce a noticeable phenotype
13 | COc1cc(Br)c(S(=O)(=O)Nc2ccc(Cl)c(O[C@@H]3CCN(C)C3)c2)cc1OC [UT2i, reference compound] | failed to induce a noticeable phenotype

target: GPR68/OGR1 (Homo sapiens (Human), UniProt Q15743); assay: inhibition of GPR68/OGR1 in CHEM1-OGR1 cells, Fluo-8 calcium response to acidified media; assay type: cell-based; settings: acidified media pH 6.4, Fluo-8
Protocol: Briefly, the methods were: On the day before the assay 20,000 cells per well of CHEM1-OGR1 cells were plated in 10% DMEM containing 10% FBS and 1% Pen/Strep into a 96 well plate. After 24 hours media was removed and cells were stained with 80 uL Fluo-8 calcium indicator dye according to manufacturer's protocol. After staining cells were treated with 20 uL of 4× concentration of test compounds. Using kinetic imaging in the Lionheart HCS fluorescence intensity was continuously measure at 10 frames per second, for 5 seconds before 100 μL of acidified media was added to the well resulting in a pH of 6.4. A ratio of fluorescence intensities prior to addition and at peak were calculated and averaged. The resulting data were platted and using a 4 parameter logistic regression EC50 for each test compound was determined.

GPR68/OGR1, sequence (Q15743 whole entry): as the sequence (Q15743 whole entry, looked up) above

Row | Structure (SMILES) | EC50 [nM]
14 | CCc1ccc2c(c1)C1(NN=C(c3cccc4ccccc34)S1)C(=O)N2 (centres unmarked) [OGM1] | 170
15 | O=C1Nc2ccc(Cl)cc2C12NN=C(c1ccccc1)S2 (centres unmarked) [OGM7] | 1620
16 | O=C1Nc2ccccc2C12NN=C(c1ccc(Cl)cc1)S2 (centres unmarked) [OGM13] | < 400
17 | COc1ccc(C2=NNC3(S2)C(=O)Nc2ccc(OC)cc23)cc1 (centres unmarked) [OGM17] | 900
18 | Cc1ccc(C2=NNC3(S2)C(=O)Nc2ccc(F)cc23)cc1 (centres unmarked) [OGM18] | 985
19 | O=C1Nc2ccc(Cl)cc2C12NN=C(c1ccc(Cl)cc1)S2 (centres unmarked) [OGM19] | < 400
20 | O=C1Nc2ccc(Cl)cc2C12NN=C(c1ccc(F)cc1)S2 (centres unmarked) [OGM21] | 796
21 | COc1ccc2c(c1)C1(NN=C(c3ccc(Cl)cc3)S1)C(=O)N2 (centres unmarked) [OGM22] | < 400
22 | O=C1Nc2ccc(Cl)cc2C12NN=C(c1cccc3ccccc13)S2 (centres unmarked) [OGM23] | 5040
23 | COc1ccc2cc(C3=NNC4(S3)C(=O)Nc3ccc(Cl)cc34)ccc2c1 (centres unmarked) [OGM24] | 45900
24 | COc1ccc2cc(C3=NNC4(S3)C(=O)Nc3ccc(F)cc34)ccc2c1 (centres unmarked) [OGM26] | 708
25 | CCc1ccc2c(c1)C1(NN=C(c3ccc4cc(OC)ccc4c3)S1)C(=O)N2 (centres unmarked) [OGM27] | > 10000
26 | CCc1ccc2c(c1)C1(NN=C(c3ccc(OC)cc3)S1)C(=O)N2 (centres unmarked) [OGM28] | > 10000
27 | COc1ccc(C2=NNC3(S2)C(=O)N(CC=C(C)C)c2ccc(Cl)cc23)cc1 (centres unmarked) [OGM29] | > 10000
28 | COc1ccc(C2=NNC3(S2)C(=O)N(CC=C(C)C)c2ccccc23)cc1 (centres unmarked) [OGM30] | > 10000
29 | CC(C)=CCN1C(=O)C2(NN=C(c3cccc4ccccc34)S2)c2cc(Cl)ccc21 (centres unmarked) [OGM32] | > 10000
30 | CC(C)=CCN1C(=O)C2(NN=C(c3cccc4ccccc34)S2)c2ccccc21 (centres unmarked) [OGM33] | > 10000

Row | Structure (SMILES) | EC50 [nM]
31 | COc1ccc2cc(C3=NNC4(S3)C(=O)N(CC=C(C)C)c3ccccc34)ccc2c1 (centres unmarked) [OGM34] | > 10000
32 | COc1ccc2cc(C3=NNC4(S3)C(=O)N(CC=C(C)C)c3ccc(Cl)cc34)ccc2c1 (centres unmarked) [OGM35] | > 10000
33 | COc1ccc2c(c1)C1(NN=C(c3cccc4cccnc34)S1)C(=O)N2 (centres unmarked) [OGM38] | 3690
34 | COc1ccc2c(c1)C1(NN=C(c3ccc4ncccc4c3)S1)C(=O)N2 (centres unmarked) [OGM43] | > 10000
35 | COC(=O)c1ccc2c(c1)C1(NN=C(c3cccc4cccnc34)S1)C(=O)N2 (centres unmarked) [OGM44] | 2920
36 | O=C1Nc2ccc(F)cc2C12NN=C(c1ccc3ncccc3c1)S2 (centres unmarked) [OGM45, 5-fluoro-5′-(quinolin-6-yl)-1,2-dihydro-3′H-spiro[indole-3,2′-[1,3,4]thiadiazol]-2-one] | 10000
37 | COC(=O)c1ccc2c(c1)C1(NN=C(c3cccnc3)S1)C(=O)N2 (centres unmarked) [OGM47] | > 10000
38 | CCc1ccc2c(c1)C1(NN=C(c3cccnc3)S1)C(=O)N2 (centres unmarked) [OGM48] | > 10000
39 | CCc1ccc2c(c1)C1(NN=C(c3ccnc(OC)c3)S1)C(=O)N2 (centres unmarked) [OGM49, 5-ethyl-5′-(2-methoxypyridin-4-yl)-1,2-dihydro-3′H-spiro[indole-3,2′-[1,3,4]thiadiazol]-2-one: 2,2,2-trifluoroacetic Acid] | 1090
40 | COc1ccc2c(c1)C1(NN=C(c3cccnc3)S1)C(=O)N2 (centres unmarked) [OGM50] | 1860
41 | COc1ccc2c(c1)NC(=O)C21NN=C(c2ccnc(OC)c2)S1 (centres unmarked) [OGM51] | 1440
42 | NS(=O)(=O)c1ccc2c(c1)C1(NN=C(c3ccccc3)S1)C(=O)N2 (centres unmarked) [OGM52] | 822
43 | NS(=O)(=O)c1ccc2c(c1)C1(NN=C(c3cccnc3)S1)C(=O)N2 (centres unmarked) [OGM53] | 900
44 | COc1cc(C2=NNC3(S2)C(=O)Nc2ccc(F)cc23)ccn1 (centres unmarked) [OGM57] | 805
45 | CCc1ccc2c(c1)C1(NN=C(c3cccc4cccnc34)S1)C(=O)N2 (centres unmarked) [OGM58] | < 400
46 | CCc1ccc2c(c1)C1(NN=C(c3ccncc3)S1)C(=O)N2 (centres unmarked) [OGM60] | < 400

test system: MeWo melanoma cell line; assay: scratch assay for migration, MeWo; assay type: cell-based, human; settings: OGM 5 μM, EIPA 10 μM, 20 hours
Protocol: as §1, §2, §3

Row | Structure (SMILES) | migration in scratch assay
47 | CCN(c1nc(N)c(C(=O)NC(=N)N)nc1Cl)C(C)C [EIPA, reference compound] | refractory to the inhibition
